Measured values as given in patent US20240252560A1, “LACTOBACILLUS RHAMNOSUS-DERIVED VESICLE AND USES THEREOF” (MD HEALTHCARE INC., priority 2021, published 2024).

Test system: AMPK
Assay: AMPK activation (pAMPK Western blotting) in muscle cells
Type: cell-based
Settings: 1 hour, vesicles 0, 0.1, 1, 10 μg/ml, metformin 10 μg/ml
Procedure: Therefore, an experiment was performed in the following manner to evaluate the effect of Lactobacillus rhamnosus-derived vesicles (MDH-003) on cellular aging through AMPK activation within cells. That is, to evaluate AMPK activity according to the concentration of Lactobacillus rhamnosus-derived vesicles in muscle cells, cells were treated with Lactobacillus rhamnosus-derived vesicles at concentrations of 0, 0.1, 1, and 10 μg/ml for 1 hour. As a control group, metformin, which suppresses aging, was used at a concentration of 10 μg/ml. After treating the cells with the drug, the difference in the amount of pAMPK, which is an important indicator in AMPK signaling, was measured by Western blotting.

CN(C)C(=N)N=C(N)N [metformin]
phosphorylation of AMPK (pAMPK): enhanced
